Experimental data as given in patent US20250281464A1, “TREATMENT OF PATHOGENIC NEISSERIA SP. INFECTION WITH TRIAZOLE ANTIFUNGAL AGENTS” (Virginia Tech Intellectual Properties, Inc., priority 2022, published 2025).
Values after ≈ are worked out from the molar mass of the structure shown. Where two headings read alike, the source gives them in different places.

Legend:
[1] = test system: N. gonorrhoeae; assay: Post-antibiotic effect (PAE) against N. gonorrhoeae; type: cell-based, Neisseria gonorrhoeae; settings: 1 h exposure at 10×MIC
From the text: Determining the PAE of a new antimicrobial is an important step for dosing and has clinical importance.

[2] = test system: intracellular N. gonorrhoeae FA1090 in endocervical cells (End1/E6E7); settings: literature statement [1, 3, 5]; cited from earlier work
[3] = test system: resistant N. gonorrhoeae isolates; assay: MIC against resistant N. gonorrhoeae isolates by agar dilution; type: cell-based, Neisseria gonorrhoeae
[4] = test system: L. johnsonii; assay: MIC against commensal vaginal Lactobacillus strains; type: cell-based, Lactobacillus johnsonii
From the text: (§1) N. gonorrhoeae pathogenesis greatly depends on colonization of the reproductive tract. One of the natural barriers of such colonization is an intact healthy microbiome. Species of lactobacilli present in the genitourinary tract play a significant role in hindering colonization by Neisseria(1).
(§2) A healthy vaginal microbiome that is dominated by Lactobacillus spp. is less susceptible to N. gonorrhoeae infection and other sexually transmitted diseases (STDs). […] We tested the activity of azoles against important members of healthy vaginal microbiota that inhibit N. gonorrhoeae colonization.

[5] = test system: N. meingitidis; assay: MIC against Neisseria spp.; type: cell-based, Neisseria meningitidis; settings: N. meingitidis (5 strains)
[6] = test system: L. jensenii; assay: MIC against commensal vaginal Lactobacillus strains; type: cell-based, Lactobacillus jensenii; settings: for MIC: Lactobacillus jensenii
From the text: as §1, §2

[7] = test system: commensal vaginal lactobacilli strains; assay: MIC against all commensal vaginal Lactobacillus strains tested; type: cell-based, Lactobacillus spp.; settings: all species/strains of Lactobacillus tested (Example 2); read-out: MIC
From the text: as §1, §2

[8] = test system: N. flavescens; assay: MIC against Neisseria spp.; type: cell-based; settings: N. flavescens (1 strain)
From the text: (§3) Intrigued by the specificity and potent activity of azoles against N. gonorrhoeae, we evaluated the extent of the azoles' antibacterial activity against other Neisseria species (Table 8).

[9] = test system: N. mucosa; assay: MIC against Neisseria spp.; type: cell-based; settings: N. mucosa (1 strain)
From the text: as §3

[10] = test system: N. lactamica; assay: MIC against Neisseria spp.; type: cell-based; settings: N. lactamica (1 strain)
From the text: as §3

[11] = test system: Lactobacillus casei; assay: MIC against normal gut microbiota; type: cell-based; settings: Lactobacillus casei (1 strain)
From the text: (§4) Disrupting the intestinal microbiota using broad-spectrum antimicrobial therapy increases the susceptibility of hosts to C. difficile colonization.

[12] = test system: Escherichia coli; assay: MIC against normal gut microbiota; type: cell-based; settings: Escherichia coli (1 strain)
From the text: as §4

[13] = test system: Bacteroides dorei; assay: MIC against normal gut microbiota; type: cell-based; settings: Bacteroides dorei (2 strains)
From the text: as §4

[14] = test system: Bifidobacterium angulatum; assay: MIC against normal gut microbiota; type: cell-based; settings: Bifidobacterium angulatum (1 strain)
From the text: as §4

[15] = test system: Enterococcus faecalis; assay: MIC against normal gut microbiota; type: cell-based; settings: Enterococcus faecalis (1 strain)
From the text: as §4

[16] = test system: Enterococcus faecium; assay: MIC against normal gut microbiota; type: cell-based; settings: Enterococcus faecium (1 strain)
From the text: as §4

[17] = MIC against normal gut microbiota; type: cell-based
From the text: as §4

[18] = test system: Lactobacillus brevis; assay: MIC against normal gut microbiota; type: cell-based; settings: Lactobacillus brevis (1 strain)
From the text: as §4

[19] = test system: Staphylococcus aureus; assay: MIC against normal gut microbiota; type: cell-based; settings: Staphylococcus aureus (1 strain)
From the text: as §4

[20] = test system: Lactobacillus rhamnosus; assay: MIC against normal gut microbiota; type: cell-based; settings: Lactobacillus rhamnosus (1 strain)
From the text: as §4

[21] = test system: L. gasseri; assay: MIC against commensal vaginal Lactobacillus strains; type: cell-based, Lactobacillus gasseri; settings: for MIC: Lactobacillus gasseri
From the text: as §1, §2

[22] = test system: L. crispatus; assay: as above; type: cell-based, Lactobacillus crispatus; settings: for MIC: Lactobacillus crispatus
From the text: as §1, §2

[23] = test system: N. gonorrhoeae isolates; assay: MIC against panel of N. gonorrhoeae clinical isolates; type: cell-based, Neisseria gonorrhoeae; settings: for MIC50: read-out: MIC50; for MIC90: read-out: MIC90
[24] = Neisseria gonorrhoeae, Table 1, 104 N. gonorrhoeae isolates
[25] = Neisseria gonorrhoeae, Table 3, 103 N. gonorrhoeae isolates with different resistance profiles

Question: What does the source list for `CO/N=C(\C(=O)N[C@@H]1C(=O)N2C(C(=O)O)=C(CSc3nc(=O)c(=O)[nH]n3C)CS[C@H]12)c1csc(N)n1` [Ceftriaxone]?
Answer: PAE ([1]; strain FA 1090): 4 h; PAE ([1]; strain WHO P): 8 h; PAE ([1]; strain WHO Y): 6 h; ability to clear intracellular N. gonorrhoeae [2]: unable to clear intracellular N. gonorrhoeae; MIC ([3]; strain CDC-174, agar dilution): 0.25 mg/L (≈ 0.451 µM); MIC ([3]; strain CDC-179, agar dilution): 0.015 mg/L (≈ 0.027 µM); MIC ([3]; strain CDC-181, agar dilution): 0.06 mg/L (≈ 0.108 µM); MIC ([3]; strain WHO-L, agar dilution): 0.5 mg/L (≈ 0.902 µM); MIC ([3]; strain WHO-X, agar dilution): 2 mg/L (≈ 3.61 µM); MIC ([3]; strain WHO-Y, agar dilution): 1 mg/L (≈ 1.8 µM); MIC ([3]; strain WHO-Z, agar dilution): 0.5 mg/L (≈ 0.902 µM); MIC ([4]; Lactobacillus johnsonii, L. johnsonii HM-643): 2 mg/L (≈ 3.61 µM); MIC Range ([4]; Table 6, L. johsonii (2 strains)): ≤1 mg/L; MIC Range [5]: 0.004 to 0.008 mg/L; MIC ([6]; L. jensenii HM-105): ≤ 0.5 mg/L; MIC ([6]; L. jensenii HM-372): ≤ 0.5 mg/L; MIC ([6]; L. jensenii HM-374): 1 mg/L (≈ 1.8 µM); MIC ([6]; L. jensenii HM-639): ≤ 0.5 mg/L; MIC ([6]; L. jensenii HM-640): ≤ 0.5 mg/L; MIC ([6]; L. jensenii HM-645): ≤ 0.5 mg/L; MIC ([6]; L. jensenii HM-646): ≤ 0.5 mg/L; MIC Range ([6]; Table 6, L. jensenii (7 strains)): ≤1 to 2 mg/L; MIC [7]: < 1 mg/L; MIC Range [8]: 0.125 mg/L (≈ 0.225 µM); MIC Range [9]: 0.125 mg/L (≈ 0.225 µM); MIC Range [10]: 0.125 mg/L (≈ 0.225 µM); MIC Range [11]: 16 mg/L (≈ 28.9 µM); MIC Range [12]: 0.03 mg/L (≈ 0.0541 µM); MIC Range [13]: 4 to 16 mg/L; MIC Range [14]: 0.125 mg/L (≈ 0.225 µM); MIC Range [15]: 8 mg/L (≈ 14.4 µM); MIC Range [16]: 8 mg/L (≈ 14.4 µM); MIC Range ([17]; Bacteroides adolescentis (2 strains)): 0.125 mg/L (≈ 0.225 µM); MIC Range ([17]; Bacteroides breve (2 strains)): 1 to 4 mg/L; MIC Range ([17]; Bacteroides longum (2 strains)): 4 mg/L (≈ 7.21 µM); MIC Range [18]: 0.5 mg/L (≈ 0.902 µM); MIC Range [19]: 2 mg/L (≈ 3.61 µM); MIC Range [20]: 16 mg/L (≈ 28.9 µM); MIC ([21]; L. gasseri HM-407): ≤ 0.5 mg/L; MIC ([21]; L. gasseri HM-642): 2 mg/L (≈ 3.61 µM); MIC ([21]; L. gasseri HM-644): 1 mg/L (≈ 1.8 µM); MIC ([21]; L. gasseri HM-647): 1 mg/L (≈ 1.8 µM); MIC Range ([21]; Table 6, L. gasseri (4 strains)): ≤1 mg/L; MIC ([22]; L. crispatus HM-103): 2 mg/L (≈ 3.61 µM); MIC ([22]; L. crispatus HM-371): 1 mg/L (≈ 1.8 µM); MIC ([22]; L. crispatus HM-638): 4 mg/L (≈ 7.21 µM); MIC Range ([22]; Table 6, L. crispatus (3 strains)): ≤1 to 2 mg/L; MIC50 [23, 24]: 0.03 mg/L (≈ 0.0541 µM); MIC90 [23, 24]: 0.06 mg/L (≈ 0.108 µM); MIC50 [23, 25]: 0.03 mg/L (≈ 0.0541 µM); MIC90 [23, 25]: 0.06 mg/L (≈ 0.108 µM); MIC ([23]; Neisseria gonorrhoeae, 103 N. gonorrhoeae isolates, read-out: highest MIC value): 2 mg/L (≈ 3.61 µM); MIC Range ([23]; Table 1, 104 N. gonorrhoeae isolates): 0.001 to 2 mg/L; MIC Range ([23]; Table 3, 103 N. gonorrhoeae isolates with different resistance profiles): 0.001 to 2 mg/L
